According to patent US11980596B2 (priority 2017, dated 2024):

Test system: subjects with MDD at imminent risk for suicide
[1] = esketamine 84 mg, double-blind phase, N = 35
[2] = esketamine 84 mg, follow up phase, N = 27

Experimental: The study consisted of a screening evaluation performed within 24 hours (or up to 48 hours upon consultation with the Sponsor's medical monitor) prior to Day 1 dose, immediately followed by a 25-day double-blind treatment phase (Day 1 to 25) with twice a week dosing, and a 56-day follow up phase (Day 26 to Day 81). The study was designed as a POC study and therefore a two-sided 0.20 significance level was used.
Among 68 randomized subjects, 66 were included in the safety analysis set (defined as receiving at least one dose of study medication in the double-blind phase). […] All safety subjects (N=66) were included in the intent-to-treat (ITT) analysis set (defined as receiving at least one dose of study medication during the double-blind phase and having both the baseline and the Day 1, 4-hour postdose evaluation for the MADRS total score). Forty-nine subjects were included in the safety (FU) analysis set (defined as all subjects who have at least 1 visit during the follow up phase).

With `CN[C@]1(c2ccccc2Cl)CCCCC1=O` [esketamine, (S)-2-(2-chlorophenyl)-2-(methylamino)cyclohexanone] the “TEAE leading to study discontinuation: Dysgeusia” value [1] was 1 (2.9%) subjects (%), the “TEAE leading to study discontinuation: Dyspnea” value [1] was 1 (2.9%) subjects (%) and the “TEAE leading to study discontinuation: Gastrointestinal disorders” value [1] was 1 (2.9%) subjects (%). The “TEAE leading to study discontinuation: Nausea” value [1] was 1 (2.9%) subjects (%), the “TEAE leading to study discontinuation: Nervous system disorders” value [1] was 2 (5.7%) subjects (%) and the “TEAE leading to study discontinuation: Panic attack” value [1] was 0 subjects (%). For the same compound, the “TEAE leading to study discontinuation: Psychiatric disorders” value [1] was 2 (5.7%) subjects (%), the “TEAE leading to study discontinuation: Respiratory, thoracic and mediastinal disorders” value [1] was 1 (2.9%) subjects (%) and the “TEAE leading to study discontinuation: Ventricular extrasystoles” value [1] was 1 (2.9%) subjects (%). The “Total no. subjects with TEAE” value [1] was 33, the “Total no. subjects with TEAE leading to study discontinuation” value [1] was 5 (14.3%) subjects (%) and the “Total no. subjects with a serious TEAE” value [1] was 4 (11.4%) subjects (%). For the same compound, the “Total subjects with TEAE, % of subjects” value [1] was “(94.3%)”, the “Possibly related TEAE” value (esketamine 84 mg, double-blind phase, N = 35, possible, probable, very likely) was 29 (82.9%) subjects (%) and the “AE Abdominal pain, % of subjects” value [2] was “(3.7%)”. The “AE Abdominal pain, no. subjects” value [2] was 1, the “AE Abdominal tenderness, % of subjects” value [2] was “(3.7%)” and the “AE Abdominal tenderness, no. subjects” value [2] was 1. For the same compound, the “AE Aphthous ulcer, no. subjects” value [2] was 0, the “AE Back pain, % of subjects” value [2] was “(3.7%)” and the “AE Back pain, no. subjects” value [2] was 1. For the same compound, the “AE Bronchitis, no. subjects” value [2] was 0, the “AE Cellulitis, no. subjects” value [2] was 0 and the “AE Cogwheel rigidity, % of subjects” value [2] was “(3.7%)”. The “AE Cogwheel rigidity, no. subjects” value [2] was 1, the “AE Contusion, % of subjects” value [2] was “(3.7%)” and the “AE Contusion, no. subjects” value [2] was 1. The “AE Depressed mood, no. subjects” value [2] was 0, the “AE Depression, % of subjects” value [2] was “(3.7%)” and the “AE Depression, no. subjects” value [2] was 1. For the same compound, the “AE Diarrhea, % of subjects” value [2] was “(3.7%)”, the “AE Diarrhea, no. subjects” value [2] was 1 and the “AE Dizziness, % of subjects” value [2] was “(3.7%)”. For the same compound, the “AE Dizziness, no. subjects” value [2] was 1, the “AE Drug hypersensitivity, no. subjects” value [2] was 0 and the “AE Dry mouth, % of subjects” value [2] was “(7.4%)”. The “AE Dry mouth, no. subjects” value [2] was 2, the “AE Dysgeusia, % of subjects” value [2] was “(3.7%)” and the “AE Dysgeusia, no. subjects” value [2] was 1. For the same compound, the “AE Ear and labyrinth disorders, no. subjects” value [2] was 0, the “AE Ear infection, % of subjects” value [2] was “(3.7%)” and the “AE Ear infection, no. subjects” value [2] was 1. For the same compound, the “AE Epistaxis, % of subjects” value [2] was “(3.7%)”, the “AE Epistaxis, no. subjects” value [2] was 1 and the “AE Flank pain, % of subjects” value [2] was “(3.7%)”. The “AE Flank pain, no. subjects” value [2] was 1, the “AE Folliculitis, no. subjects” value [2] was 0 and the “AE Gastrointestinal disorders, % of subjects” value [2] was “(22.2%)”. For the same compound, the “AE Gastrointestinal disorders, no. subjects” value [2] was 6, the “AE Headache, % of subjects” value [2] was “(7.4%)” and the “AE Headache, no. subjects” value [2] was 2. For the same compound, the “AE Immune system disorders, no. subjects” value [2] was 0, the “AE Infections and infestations, % of subjects” value [2] was “(11.1%)” and the “AE Infections and infestations, no. subjects” value [2] was 3. For the same compound, the “AE Influenza, no. subjects” value [2] was 0, the “AE Injury, poisoning and procedural complications, % of subjects” value [2] was “(7.4%)” and the “AE Injury, poisoning and procedural complications, no. subjects” value [2] was 2. For the same compound, the “AE Insomnia, % of subjects” value [2] was “(11.1%)”, the “AE Insomnia, no. subjects” value [2] was 3 and the “AE Intentional self-injury, % of subjects” value [2] was “(3.7%)”. For the same compound, the “AE Intentional self-injury, no. subjects” value [2] was 1, the “AE Loss of consciousness, % of subjects” value [2] was “(3.7%)” and the “AE Loss of consciousness, no. subjects” value [2] was 1. The “AE Meniere's disease, no. subjects” value [2] was 0, the “AE Metabolism and nutrition disorders, no. subjects” value [2] was 0 and the “AE Migraine, % of subjects” value [2] was “(3.7%)”. For the same compound, the “AE Migraine, no. subjects” value [2] was 1, the “AE Musculoskeletal and connective tissue disorders, % of subjects” value [2] was “(7.4%)” and the “AE Musculoskeletal and connective tissue disorders, no. subjects” value [2] was 2. The “AE Musculoskeletal chest pain, % of subjects” value [2] was “(3.7%)”, the “AE Musculoskeletal chest pain, no. subjects” value [2] was 1 and the “AE Musculoskeletal pain, % of subjects” value [2] was “(3.7%)”. For the same compound, the “AE Musculoskeletal pain, no. subjects” value [2] was 1, the “AE Nasal congestion, % of subjects” value [2] was “(3.7%)” and the “AE Nasal congestion, no. subjects” value [2] was 1. For the same compound, the “AE Nasopharyngitis, % of subjects” value [2] was “(3.7%)”, the “AE Nasopharyngitis, no. subjects” value [2] was 1 and the “AE Nausea, no. subjects” value [2] was 0. The “AE Neck pain, % of subjects” value [2] was “(3.7%)”, the “AE Neck pain, no. subjects” value [2] was 1 and the “AE Nervous system disorders, % of subjects” value [2] was “(22.2%)”. The “AE Nervous system disorders, no. subjects” value [2] was 6, the “AE Night sweats, % of subjects” value [2] was “(3.7%)” and the “AE Night sweats, no. subjects” value [2] was 1. The “AE Panic reaction, no. subjects” value [2] was 0, the “AE Pelvic pain, % of subjects” value [2] was “(3.7%)” and the “AE Pelvic pain, no. subjects” value [2] was 1. The “AE Pharyngitis, % of subjects” value [2] was “(7.4%)”, the “AE Pharyngitis, no. subjects” value [2] was 2 and the “AE Polydipsia, no. subjects” value [2] was 0. The “AE Procedural pain, no. subjects” value [2] was 0, the “AE Psychiatric disorders, % of subjects” value [2] was “(18.5%)” and the “AE Psychiatric disorders, no. subjects” value [2] was 5. For the same compound, the “AE Rash, no. subjects” value [2] was 0, the “AE Renal and urinary disorders, no. subjects” value [2] was 0 and the “AE Renal failure, no. subjects” value [2] was 0. For the same compound, the “AE Reproductive system and breast disorders, % of subjects” value [2] was “(3.7%)”, the “AE Reproductive system and breast disorders, no. subjects” value [2] was 1 and the “AE Respiratory, thoracic and mediastinal disorders, % of subjects” value [2] was “(7.4%)”. The “AE Respiratory, thoracic and mediastinal disorders, no. subjects” value [2] was 2, the “AE Restlessness, % of subjects” value [2] was “(3.7%)” and the “AE Restlessness, no. subjects” value [2] was 1. For the same compound, the “AE Road traffic accident, % of subjects” value [2] was “(3.7%)”, the “AE Road traffic accident, no. subjects” value [2] was 1 and the “AE Sedation, % of subjects” value [2] was “(3.7%)”. For the same compound, the “AE Sedation, no. subjects” value [2] was 1, the “AE Self-injurious ideation, no. subjects” value [2] was 0 and the “AE Sexual dysfunction, no. subjects” value [2] was 0. The “AE Skin and subcutaneous tissue disorders, % of subjects” value [2] was “(3.7%)”, the “AE Skin and subcutaneous tissue disorders, no. subjects” value [2] was 1 and the “AE Somnolence, no. subjects” value [2] was 0. For the same compound, the “AE Suicidal ideation, % of subjects” value [2] was “(3.7%)”, the “AE Suicidal ideation, no. subjects” value [2] was 1 and the “AE Suicide attempt, no. subjects” value [2] was 0. The “AE Tooth impacted, no. subjects” value [2] was 0, the “AE Toothache, no. subjects” value [2] was 0 and the “AE Tremor, % of subjects” value [2] was “(7.4%)”. The “AE Tremor, no. subjects” value [2] was 2, the “AE Upper respiratory tract infection, % of subjects” value [2] was “(3.7%)” and the “AE Upper respiratory tract infection, no. subjects” value [2] was 1. The “AE Viral upper respiratory tract infection, no. subjects” value [2] was 0, the “AE Vomiting, % of subjects” value [2] was “(3.7%)” and the “AE Vomiting, no. subjects” value [2] was 1. For the same compound, the “AE Vulvovaginal mycotic infection, % of subjects” value [2] was “(3.7%)”, the “AE Vulvovaginal mycotic infection, no. subjects” value [2] was 1 and the “Serious adverse event: Cellulitis” value [2] was 0 subjects (%). For the same compound, the “Serious adverse event: Infections and infestations” value [2] was 0 subjects (%), the “Serious adverse event: Psychiatric disorders” value [2] was 1 (3.7%) subjects (%) and the “Serious adverse event: Suicidal ideation” value [2] was 1 (3.7%) subjects (%). For the same compound, the “Serious adverse event: Suicide attempt” value [2] was 0 subjects (%), the “Total no. subjects with a serious adverse event” value [2] was 1 (3.7%) subjects (%) and the “Total no. subjects with adverse events” value [2] was 13. For the same compound, the “Total subjects with adverse events, % of subjects” value [2] was “(48.1%)” and the “Suicide attempts (non-fatal)” value (follow up period) was “none”.
